This is an account of results in patent US11572590B2, “Methods for evaluating tumor cell spheroids using 3D microfluidic cell culture device” (Dana-Farber Cancer Institute, Inc., priority 2017, dated 2023).

Each structure is given as a SMILES string. Like-named read-outs stand apart in the source and are kept apart here.

Holding throughout (experiment): SelectScreen Kinase Profiling, single point inhibition and IC50 for off-target kinases
What all share (assay type): biochemical

The target in experiment [1] is off-target kinases (Homo sapiens, UniProt P54764). The settings on record: EPHA4, ZLYTE, ATP Km app.
Experiment [2] has as its target T1, off-target kinases (Homo sapiens, UniProt Q9UPZ9).
T1 sequence (Q9UPZ9 1-632): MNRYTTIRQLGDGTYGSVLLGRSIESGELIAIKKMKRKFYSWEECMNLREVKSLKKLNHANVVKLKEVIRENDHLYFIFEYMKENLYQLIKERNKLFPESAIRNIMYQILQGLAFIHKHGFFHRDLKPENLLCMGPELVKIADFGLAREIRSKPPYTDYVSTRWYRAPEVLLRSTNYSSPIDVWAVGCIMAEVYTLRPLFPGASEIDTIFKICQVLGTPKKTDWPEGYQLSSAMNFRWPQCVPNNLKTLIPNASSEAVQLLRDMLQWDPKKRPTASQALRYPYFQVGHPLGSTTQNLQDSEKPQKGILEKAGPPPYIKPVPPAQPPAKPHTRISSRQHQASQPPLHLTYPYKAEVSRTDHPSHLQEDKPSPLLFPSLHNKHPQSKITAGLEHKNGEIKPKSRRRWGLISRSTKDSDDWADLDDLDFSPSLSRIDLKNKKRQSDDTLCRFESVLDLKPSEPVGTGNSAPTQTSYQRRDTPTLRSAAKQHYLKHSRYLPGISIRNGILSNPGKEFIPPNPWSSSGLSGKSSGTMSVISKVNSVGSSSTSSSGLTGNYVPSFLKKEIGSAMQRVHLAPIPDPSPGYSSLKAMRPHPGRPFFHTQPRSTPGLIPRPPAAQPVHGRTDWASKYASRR
The settings on record: ICK, LanthaScreen Binding. For orientation: TR-FRET usually uses a lanthanide donor and a delayed reading to cut background.

Experiment [3] concerns the target off-target kinases (Homo sapiens, UniProt Q16288). The note with it: NTRK3 (TRKC), ZLYTE, ATP Km app.
Experiment [4] concerns the target T2, off-target kinases (Homo sapiens, UniProt O14936).
T2 sequence (O14936 1-926): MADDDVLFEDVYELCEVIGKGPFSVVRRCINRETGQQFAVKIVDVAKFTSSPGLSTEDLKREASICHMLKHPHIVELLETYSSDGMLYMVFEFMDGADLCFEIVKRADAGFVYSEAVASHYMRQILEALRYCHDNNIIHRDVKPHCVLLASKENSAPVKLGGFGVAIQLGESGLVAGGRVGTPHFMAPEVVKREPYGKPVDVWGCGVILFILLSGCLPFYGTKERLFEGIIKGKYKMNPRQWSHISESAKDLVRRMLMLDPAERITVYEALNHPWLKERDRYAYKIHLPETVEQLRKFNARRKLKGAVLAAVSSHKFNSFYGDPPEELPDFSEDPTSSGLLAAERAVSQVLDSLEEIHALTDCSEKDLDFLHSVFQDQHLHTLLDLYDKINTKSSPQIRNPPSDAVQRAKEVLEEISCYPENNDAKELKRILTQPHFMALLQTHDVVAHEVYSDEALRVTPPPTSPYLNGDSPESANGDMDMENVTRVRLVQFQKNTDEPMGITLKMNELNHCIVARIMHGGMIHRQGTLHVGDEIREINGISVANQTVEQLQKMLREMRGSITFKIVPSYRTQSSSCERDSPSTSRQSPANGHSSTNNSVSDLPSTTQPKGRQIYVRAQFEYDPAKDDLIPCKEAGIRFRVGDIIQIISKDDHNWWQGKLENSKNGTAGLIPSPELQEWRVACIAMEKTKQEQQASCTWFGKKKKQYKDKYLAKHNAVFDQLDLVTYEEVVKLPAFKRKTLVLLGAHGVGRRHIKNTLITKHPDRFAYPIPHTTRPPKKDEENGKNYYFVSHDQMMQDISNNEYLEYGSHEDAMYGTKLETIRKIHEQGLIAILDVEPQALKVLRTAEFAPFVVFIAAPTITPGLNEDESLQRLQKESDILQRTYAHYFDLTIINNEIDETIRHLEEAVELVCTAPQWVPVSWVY
The note with it: CASK, LanthaScreen Binding.

Experiment [5] concerns the target off-target kinases (Homo sapiens, UniProt Q16620). The settings on record: NTRK2 (TRKB), ZLYTE, ATP Km app.

Chain of off-target kinases (Homo sapiens, UniProt P54764) (P54764 20-986): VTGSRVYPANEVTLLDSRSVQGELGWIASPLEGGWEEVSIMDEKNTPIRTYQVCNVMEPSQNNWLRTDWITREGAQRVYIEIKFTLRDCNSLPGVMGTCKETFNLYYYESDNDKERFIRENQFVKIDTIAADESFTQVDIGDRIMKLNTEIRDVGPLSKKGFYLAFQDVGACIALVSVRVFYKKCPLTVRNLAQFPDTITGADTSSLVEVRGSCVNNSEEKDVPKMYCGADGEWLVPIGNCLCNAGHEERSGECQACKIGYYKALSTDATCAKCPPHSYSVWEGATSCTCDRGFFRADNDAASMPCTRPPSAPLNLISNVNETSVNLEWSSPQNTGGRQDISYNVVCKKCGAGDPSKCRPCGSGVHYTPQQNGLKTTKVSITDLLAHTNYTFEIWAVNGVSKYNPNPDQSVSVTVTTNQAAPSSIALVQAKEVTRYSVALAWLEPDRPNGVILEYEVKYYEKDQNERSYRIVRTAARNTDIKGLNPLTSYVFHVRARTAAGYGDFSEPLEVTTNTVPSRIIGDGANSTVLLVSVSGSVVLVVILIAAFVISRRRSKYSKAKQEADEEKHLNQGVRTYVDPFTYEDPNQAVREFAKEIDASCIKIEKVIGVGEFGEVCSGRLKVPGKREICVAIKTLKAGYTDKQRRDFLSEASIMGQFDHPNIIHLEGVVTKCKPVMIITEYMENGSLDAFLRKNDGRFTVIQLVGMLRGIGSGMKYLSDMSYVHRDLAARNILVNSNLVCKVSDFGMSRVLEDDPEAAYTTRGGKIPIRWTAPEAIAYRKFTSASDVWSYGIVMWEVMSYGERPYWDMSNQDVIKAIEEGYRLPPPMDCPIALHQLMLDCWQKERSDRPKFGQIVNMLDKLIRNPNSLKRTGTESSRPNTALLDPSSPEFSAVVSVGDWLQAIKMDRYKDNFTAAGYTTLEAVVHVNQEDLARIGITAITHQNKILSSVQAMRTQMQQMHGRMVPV
Chain of off-target kinases (Homo sapiens, UniProt Q16288) (Q16288 32-839): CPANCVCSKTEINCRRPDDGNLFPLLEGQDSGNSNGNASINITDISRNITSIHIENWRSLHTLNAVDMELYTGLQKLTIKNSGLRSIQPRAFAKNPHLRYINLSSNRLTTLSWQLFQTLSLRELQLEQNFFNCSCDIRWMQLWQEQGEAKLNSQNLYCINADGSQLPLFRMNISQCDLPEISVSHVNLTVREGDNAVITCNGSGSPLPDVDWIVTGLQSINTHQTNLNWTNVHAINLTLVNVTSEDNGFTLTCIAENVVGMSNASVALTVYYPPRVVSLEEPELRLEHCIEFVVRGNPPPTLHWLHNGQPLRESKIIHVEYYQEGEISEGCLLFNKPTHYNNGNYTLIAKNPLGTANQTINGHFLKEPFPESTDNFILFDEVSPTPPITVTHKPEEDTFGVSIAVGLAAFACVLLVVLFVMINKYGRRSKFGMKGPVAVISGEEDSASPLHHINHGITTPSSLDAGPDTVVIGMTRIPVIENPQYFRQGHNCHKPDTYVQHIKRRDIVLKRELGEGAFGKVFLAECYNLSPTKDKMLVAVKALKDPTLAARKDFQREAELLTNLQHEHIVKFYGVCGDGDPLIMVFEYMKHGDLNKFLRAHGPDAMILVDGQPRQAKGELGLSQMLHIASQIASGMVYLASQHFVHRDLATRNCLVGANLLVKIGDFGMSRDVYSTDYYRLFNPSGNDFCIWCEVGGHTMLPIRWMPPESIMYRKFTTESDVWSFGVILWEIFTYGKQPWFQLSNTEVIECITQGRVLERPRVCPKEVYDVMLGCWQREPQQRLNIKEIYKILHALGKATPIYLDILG
Chain of off-target kinases (Homo sapiens, UniProt Q16620) (Q16620 32-822): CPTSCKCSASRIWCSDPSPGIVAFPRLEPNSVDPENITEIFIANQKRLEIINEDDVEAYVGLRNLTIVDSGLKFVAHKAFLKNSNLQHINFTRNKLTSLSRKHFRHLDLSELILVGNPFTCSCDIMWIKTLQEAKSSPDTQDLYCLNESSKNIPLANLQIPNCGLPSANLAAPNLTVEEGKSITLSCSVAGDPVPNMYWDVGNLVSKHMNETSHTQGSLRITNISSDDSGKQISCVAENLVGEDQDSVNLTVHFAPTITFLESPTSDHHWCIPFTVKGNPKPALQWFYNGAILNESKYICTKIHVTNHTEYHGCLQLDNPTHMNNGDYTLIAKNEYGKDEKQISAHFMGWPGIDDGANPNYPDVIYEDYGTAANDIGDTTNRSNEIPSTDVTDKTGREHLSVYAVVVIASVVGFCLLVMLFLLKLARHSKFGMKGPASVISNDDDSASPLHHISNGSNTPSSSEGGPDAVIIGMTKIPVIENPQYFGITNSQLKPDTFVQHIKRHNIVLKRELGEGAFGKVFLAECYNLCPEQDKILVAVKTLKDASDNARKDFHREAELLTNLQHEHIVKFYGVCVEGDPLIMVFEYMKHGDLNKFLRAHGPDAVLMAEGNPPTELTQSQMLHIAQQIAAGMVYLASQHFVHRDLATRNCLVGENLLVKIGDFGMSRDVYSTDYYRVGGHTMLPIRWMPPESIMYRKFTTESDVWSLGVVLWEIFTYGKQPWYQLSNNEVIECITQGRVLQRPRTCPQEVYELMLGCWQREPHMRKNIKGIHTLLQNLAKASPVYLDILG

What is called inhibition is the share of the control response that was lost under treatment. `N#Cc1cc(-c2ncnc(Nc3ccc(N4CCN(C5COC5)CC4)cc3)n2)ccc1OC1CCOCC1` [Compound 1, 5-(4-((4-(4-(oxetan-3-yl)piperazin-1-yl)phenyl)amino)-1,3,5-triazin-2-yl)-2-((tetrahydro-2H-pyran-4-yl)oxy)benzonitrile]: the inhibition at off-target kinases [1] (read-out: % Inhibition 1) stood at 18%; on off-target kinases [1] (read-out: % Inhibition 2), 21%; at off-target kinases [1] (read-out: % Inhibition Avg) it was 20%; at off-target kinases [2] (read-out: % Inhibition 1), 22%; on off-target kinases [2] (read-out: % Inhibition 2), 22%; at off-target kinases [2] (read-out: % Inhibition Avg), 22%. The inhibition on off-target kinases [3] (read-out: % Inhibition 1) came out at 17%; on off-target kinases [3] (read-out: % Inhibition 2) it was 19%; at off-target kinases [3] (read-out: % Inhibition Avg), 18%; on off-target kinases [4] (read-out: % Inhibition 1), 6%; at off-target kinases [4] (read-out: % Inhibition 2), 10%; at off-target kinases [4] (read-out: % Inhibition Avg), 8%. The inhibition amounted to 5% at off-target kinases [5] (read-out: % Inhibition 1), 7% at off-target kinases [5] (read-out: % Inhibition 2) and 6% at off-target kinases [5] (read-out: % Inhibition Avg).
